What is called solubility is how much of the substance goes into solution per volume. Read a low solubility as little dissolved substance.

The source of these data is ChEMBL document CHEMBL4342475, “Structure-Bioactivity Relationships of Lapatinib Derived Analogs against Schistosoma mansoni” (ACS Med Chem Lett, 2020).

The test system of series [1] is Schistosoma mansoni. Briefly: Antiparasitic activity against Schistosoma mansoni infected in Hamster assessed as severity score at 10 uM incubated for 1 hr. It counts as functional, organism-based.
Series [2] is described as follows: Cytotoxicity against human HepG2 cells assessed as reduction in cell viability 48 hrs by MTT assay. It counts as cell-based. To be noted: read-out: TC50. For orientation: Tetrazolium dyes change colour on reduction, which living cells bring about.
Series [3] has as its system Schistosoma mansoni. The series can be described thus: Antiparasitic activity against Schistosoma mansoni infected in Hamster assessed as severity score at 10 uM incubated for 5 hrs. It counts as functional, organism-based.
In series [4] the test system is Schistosoma mansoni. Briefly: Antiparasitic activity against Schistosoma mansoni infected in Hamster assessed as severity score at 10 uM incubated for 48 hrs. It counts as functional, organism-based.
Series [5] can be described thus: Metabolic stability in human liver microsomes assessed as intrinsic clearance by LC-MS/MS analysis. It is filed as ADME, Microsome. A general note: Liver microsomes are a subcellular fraction often used to study metabolism.
Series [6] relates to Schistosoma mansoni. The series can be described thus: Antiparasitic activity against Schistosoma mansoni infected in Hamster assessed as severity score at 10 uM incubated for 24 hrs. It counts as functional, organism-based.
Series [7] in a line: Protein binding in human plasma at 1 uM by LC-MS/MS analysis. It counts as ADME, cell-free.
Series [8] in a line: Aqueous solubility of compound incubated for 24 hrs by LC-MS/MS analysis. It is filed as physicochemical. To be noted: buffer, 24 h.

Values after ≈ are worked out from the molar mass of the structure shown. Active and inactive are the calls of the source. The calls are words filed in the database; no cut-off is given here.

In the case of `Cc1c(-c2cnc(N3CCCNCC3)nc2)ccc2c(Nc3cnccn3)ccnc12`, the outcome in the series with Schistosoma mansoni [1] and with Schistosoma mansoni [3] was inactive. For the same molecule, the CC50 at 48 h in series [2] is greater than 3.7 µM. For the same molecule, the outcome with Schistosoma mansoni [4] and in the series with Schistosoma mansoni [6] was Active. In series [5], the intrinsic clearance amounted to 41 µL/min/mg. In series [7], this molecule gave a PPB of 76%. The molecule also came in with a solubility in series [8] of 465 µM (≈ 192 µg/mL).

On to `CCCN1CCCN(c2ncc(-c3cc4nccc(Nc5cnccn5)c4cc3C)cn2)CC1`, for which the CC50 at 48 h in series [2] amounted to 7.6 µM. In addition, the outcome in the series with Schistosoma mansoni [3] and in the series with Schistosoma mansoni [4] was inactive. The intrinsic clearance in series [5] was 300 µL/min/mg. Also, the PPB in series [7] was 88%. The molecule further had a solubility in series [8] of 480 µM (≈ 218 µg/mL).

In the case of `Cc1cc2c(Nc3cnccn3)ccnc2cc1-c1cnc(N2CCCNCC2)nc1`, the outcome with Schistosoma mansoni [1], in the series with Schistosoma mansoni [3], in the series with Schistosoma mansoni [4] and in the series on Schistosoma mansoni [6] was inactive. For the same molecule, the CC50 at 48 h in series [2] was determined as 13 µM. In series [5], the intrinsic clearance was found to be 13 µL/min/mg. This molecule also returned a PPB in series [7] of 70%. For the same molecule, the solubility in series [8] is 1000 µM (≈ 413 µg/mL).

`Cc1cc2c(Nc3cnccn3)ccnc2cc1-c1cnc(N2CCCN(C)CC2)nc1`: the outcome with Schistosoma mansoni [1], with Schistosoma mansoni [3], in the series on Schistosoma mansoni [4] and with Schistosoma mansoni [6] was Active. In addition, the CC50 at 48 h in series [2] amounted to 7.6 µM. In addition, in series [5], the intrinsic clearance was 260 µL/min/mg. This molecule also gave a PPB in series [7] of 82%. This molecule also came in with a solubility in series [8] of 670 µM (≈ 286 µg/mL).

Consider `CCN1CCCN(c2ncc(-c3cc4nccc(Nc5cnccn5)c4cc3C)cn2)CC1`, for which the CC50 at 48 h in series [2] is 4.7 µM. Further, the result in the series with Schistosoma mansoni [3], in the series on Schistosoma mansoni [4] and in the series with Schistosoma mansoni [6] was Active. The intrinsic clearance in series [5] was 300 µL/min/mg. This molecule also displayed a PPB in series [7] of 84%. The same molecule returned a solubility in series [8] of 790 µM (≈ 348 µg/mL).

On to `CCCN1CCCN(c2ncc(-c3ccc4c(Nc5cnccn5)ccnc4c3C)cn2)CC1`, for which the result in the series with Schistosoma mansoni [1] and with Schistosoma mansoni [3] was inactive. Further, in series [2], the CC50 at 48 h is 12 µM. Moreover, the outcome in the series with Schistosoma mansoni [4] and with Schistosoma mansoni [6] was Active. In addition, in series [5], the intrinsic clearance turned out to be 300 µL/min/mg. Also, in series [7], the PPB worked out at 94%. In series [8], this molecule showed a solubility of 450 µM (≈ 205 µg/mL).

Regarding `CCN1CCCN(c2ncc(-c3ccc4c(Nc5cnccn5)ccnc4c3C)cn2)CC1`, the outcome with Schistosoma mansoni [1], in the series on Schistosoma mansoni [3], in the series on Schistosoma mansoni [4] and in the series with Schistosoma mansoni [6] was inactive. Further, the CC50 at 48 h in series [2] is 16 µM. Further, in series [5], the intrinsic clearance came to 160 µL/min/mg. The molecule also yielded a PPB in series [7] of 88%. In series [8], this molecule displayed a solubility of 580 µM (≈ 256 µg/mL).
